Experimental data from patent publication US6022969A, “Compositions and methods for treating mast-cell mediated conditions” (AXYS Pharmaceuticals, Inc., priority 1995, dated 2000).

Target: tryptase
Assay: In vitro tryptase inhibition assay (hydrolysis of tosyl-Gly-Pro-Lys-p-nitroanilide)
Type: biochemical, human
Conditions: tosyl-Gly-Pro-Lys-p-nitroanilide 0.5 mM, pH 8.2, 1 h pre-incubation, room temperature
Description: The compounds to be assayed (approximately 1 mg) were dissolved in 200 μL dimethylsulfoxide (DMSO) and diluted 1:10 into buffer containing 50 millimolar (mM) Tris-HCl (pH 8.2), 100 mM sodium chloride, and 0.05% polyoxyethylenesorbitan monolaurate (Tween-20®, available from Sigma, St. Louis, Mo.). Seven additional threefold dilutions were made from the initial dilution into the same buffer supplemented with 10% DMSO. Aliquots (50 microliters, μL) from each of the eight dilutions in the series were transferred to individual wells in a 96-well U-bottom microtiter plate. 25 μL of a stock solution of tryptase was added to each well and the samples were mixed and incubated for one hour at room temperature (tryptase was purified from human lung and skin tissue preparations, HMC-1 (human mast cell line) and also obtained from commercial sources (ICN Biomedicals, Irvine, Calif.; Athens Research & Technology, Athens, Ga.)). […] The tryptase solution was prepared by placing 60 μg/mL of tryptase into solution with 10 mM MES (2-[N-Morpholino]ethane sulfonic acid) containing 2 mM CaCl2, 20% glycerol and 50 μg/mL heparin. The enzyme reaction was initiated with the addition of the synthetic tripeptide substrate, tosyl-Gly-Pro-Lys-p-nitroanilide (available from Sigma, 25 μL; 0.5 mM final concentration).
However, Ki ' varies with the enzyme concentration used in the enzyme assay. […] The y-intercept of a replot of IC50 (ordinate) versus tryptase concentration (abscissa) produces a value for Ki '.
The inhibition constants (Ki ', micromolar (μM)) were determined for the compounds of the present invention.

Compound	Ki [nM]
N=C(N)Nc1ccc(CNC(=O)N2CCN(C(=O)OCC34CC5CC(C3)CC(COC(=O)N3CCN(C(=O)NCc6ccc(NC(=N)N)cc6)CC3)(C5)C4)CC2)cc1 [Compound 31, cis-1,5-tetracyclo[3.3.1.1^3,7]decylenedimethylene bis[4-(4-guanidinobenzylcarbamoyl)-1-piperazinecarboxylate]]	26.6
N=C(N)c1ccc(CCNC(=O)N2CCN(C(=O)O[C@H]3CCC[C@@H](OC(=O)N4CCN(C(=O)NCCc5ccc(C(=N)N)cc5)CC4)CCC3)CC2)cc1 [Compound 33, cis-1,5-cyclooctylene bis{4-[2-(4-amidinophenyl)ethylcarbamoyl)-1-piperazinecarboxylate}]	440
NCCCCCNC(=O)N1CCN(C(=O)O[C@H]2CCC[C@@H](OC(=O)N3CCN(C(=O)NCCCCCN)CC3)CCC2)CC1 [Compound 34, cis-1,5-cyclooctylene bis[4-(5-aminopentylcarbamoyl)-1-piperazinecarboxylate]]	11
NCCCCCCNC(=O)N1CCN(C(=O)O[C@H]2CCC[C@@H](OC(=O)N3CCN(C(=O)NCCCCCCN)CC3)CCC2)CC1 [Compound 35, cis-1,5-cyclooctylene bis[4-(6-aminohexylcarbamoyl)-1-piperazinecarboxylate]]	1440
NCCC=CCNC(=O)N1CCN(C(=O)O[C@H]2CCC[C@@H](OC(=O)N3CCN(C(=O)NCC=CCCN)CC3)CCC2)CC1 [Compound 36, cis-1,5-cyclooctylene bis[4-(5-amino-2-pentenylcarbamoyl)-1-piperazinecarboxylate]]	125
NCCCCNC(=O)N1CCN(C(=O)O[C@H]2CCC[C@@H](OC(=O)N3CCN(C(=O)NCCCCN)CC3)CCC2)CC1 [Compound 37, cis-1,5-cyclooctylene bis[4-(4-aminobutylcarbamoyl)-1-piperazinecarboxylate]]	508
NCCOCCNC(=O)N1CCN(C(=O)O[C@H]2CCC[C@@H](OC(=O)N3CCN(C(=O)NCCOCCN)CC3)CCC2)CC1 [Compound 38, cis-1,5-cyclooctylene bis{4-[2-(2-aminoethoxy)ethylcarbamoyl]-1-piperazinecarboxylate}]	750
NC[C@H]1CC[C@H](NC(=O)OC2CCN(C(=O)O[C@H]3CCC[C@@H](OC(=O)N4CCC(OC(=O)N[C@H]5CC[C@H](CN)CC5)CC4)CCC3)CC2)CC1 [Compound 39, cis-1,5-cyclooctylene bis[4-(trans-4-aminomethylcyclohexylaminoformyloxy)-1-piperidinecarboxylate]]	858
CN(CCOC(=O)N[C@H]1CC[C@H](CN)CC1)C(=O)O[C@H]1CCC[C@@H](OC(=O)N(C)CCOC(=O)N[C@H]2CC[C@H](CN)CC2)CCC1 [Compound 40, cis-1,5-cyclooctylene bis[N-2-(trans-4-aminomethylcyclohexylaminoformyloxy)ethyl-N-methylaminocarboxylate]]	1390
CN(CCOC(=O)NC[C@H]1CC[C@H](CN)CC1)C(=O)O[C@H]1CCC[C@@H](OC(=O)N(C)CCOC(=O)NC[C@H]2CC[C@H](CN)CC2)CCC1 [Compound 41, cis-1,5-cyclooctylene bis[N-2-(trans-4-aminomethylcyclohexylmethylaminoformyloxy)ethyl-N-methylaminocarboxylate}]	1100
NC[C@H]1CC[C@H](CNC(=O)N2CCN(C(=O)OC[C@H]3CC[C@H](COC(=O)N4CCN(C(=O)NC[C@H]5CC[C@H](CN)CC5)CC4)CC3)CC2)CC1 [Compound 42, trans-1,4-cyclohexylenedimethylene bis[4-(trans-4-aminomethylcyclohexylmethylcarbamoyl)-1-piperazinecarboxylate]]	64
NC[C@H]1CC[C@H](CNC(=O)OC2CCN(C(=O)O[C@H]3CCC[C@@H](OC(=O)N4CCC(OC(=O)NC[C@H]5CC[C@H](CN)CC5)CC4)CCC3)CC2)CC1 [Compound 43, cis-1,5-cyclooctylene bis[4-(trans-4-aminomethylcyclohexylmethylaminoformyloxy)-1-piperidinecarboxylate]]	1450
cis-1,5-tetracyclo[3.3.1.1^3,7 ]decylenedimethylene bis[4-(4-guanidinobenzylcarbamoyl)-1-piperazinecarboxaldehyde] [Compound 32]	12.2
trans-1,4-cyclohexylene bis[4-(4-guanidinobenzylcarbamoyl)-1-piperazinecarboxaldehyde] [Compound 21]	60.9

Other lines, results leading:

Ki [nM]	Compound
8	N=C(N)c1ccc(C(=O)NCC2CCN(C(=O)O[C@H]3CCC[C@@H](OC(=O)N4CCC(CNC(=O)c5ccc(C(=N)N)cc5)CC4)CCC3)CC2)cc1 [Compound 44, cis-1,5-cyclooctylene bis[4-(4-amidinobenzoylaminomethyl)-1-piperidinecarboxylate]]
114	N=C(N)C1CCN(C(=O)NCC2CCN(C(=O)O[C@H]3CCC[C@@H](OC(=O)N4CCC(CNC(=O)N5CCC(C(=N)N)CC5)CC4)CCC3)CC2)CC1 [Compound 45, cis-1,5-cyclooctylene bis[4-(4-amidinopiperid-1-ylcarbonylaminomethyl)-1-piperidinecarboxylate]]
772	N=C(N)Nc1ccc(CNC(=O)N2CCN(C(=O)C3CCCCC3C(=O)N3CCN(C(=O)NCc4ccc(NC(=N)N)cc4)CC3)CC2)cc1 (stereo not shown) [Compound 46, 1,2-cyclohexylene bis[4-(4-guanidinobenzylcarbamoyl)-1-piperazinecarboxadehyde]]
0.42	N=C(N)Nc1ccc(CNC(=O)N2CCN(C(=O)OCC34CCC(COC(=O)N5CCN(C(=O)NCc6ccc(NC(=N)N)cc6)CC5)(CC3)CC4)CC2)cc1 [Compound 47, 1,4-bicyclo[2.2.2]octylenedimethylene bis[4-(4-guanidinobenzylcarbamoyl)-1-piperazinecarboxylate]]
2300	N=C(N)Nc1ccc(C(=O)NCC2CCN(C(=O)O[C@H]3CCC[C@@H](OC(=O)N4CCC(CNC(=O)c5ccc(NC(=N)N)cc5)CC4)CCC3)CC2)cc1 [Compound 48, cis-1,5-cyclooctylene bis[4-(4-guanidinophenylcarbonylaminomethyl)-1-piperidinecarboxylate]]
3.4	N=C(N)Nc1ccc(CNC(=O)N2CCN(C(=O)OC[C@H]3CC[C@@H](COC(=O)N4CCN(C(=O)NCc5ccc(NC(=N)N)cc5)CC4)CC3)CC2)cc1 [Compound 49, cis-1,4-cyclohexylenedimethylene bis[4-(4-guanidinobenzylcarbamoyl)-1-piperazinecarboxylate]]
0.45	N=C(N)Nc1ccc(CNC(=O)N2CCN(C(=O)O[C@H]3CCC[C@@H](OC(=O)N4CCN(C(=O)NCCCCCN)CC4)CCC3)CC2)cc1 [Compound 50, cis-5-[4-(5-aminopentylcarbamoyl)piperazin-1-ylformyloxy]cyclooctyl 4-(4-guanidinobenzylcarbamoyl)-1-piperazinecarboxylate]
3.8	N=C(N)Nc1ccc(CNC(=O)N2CCN(C(=O)O[C@H]3CCC[C@@H](OC(=O)N4CCN(C(=O)NCCCCN)CC4)CCC3)CC2)cc1 [Compound 51, cis-5-[4-(4-aminobutylcarbamoyl)piperazin-1-ylformyloxy]cyclooctyl 4-(4-guanidinobenzylcarbamoyl)-1-piperazinecarboxylate]
0.48	N=C(N)Nc1ccc(CNC(=O)N2CCN(C(=O)O[C@H]3CCC[C@@H](OC(=O)N4CCN(C(=O)NC[C@H]5CC[C@H](CN)CC5)CC4)CCC3)CC2)cc1 [Compound 52]
44	N=C(N)Nc1ccc(CNC(=O)N2CCN(C(=O)O[C@H]3CCC[C@@H](OC(=O)N4CCN(C(=O)NCCCN)CC4)CCC3)CC2)cc1 [Compound 53, cis-5-[4-(3-aminopropylcarbamoyl)piperazin-1-ylformyloxy]cyclooctyl 4-(4-guanidinobenzylcarbamoyl)-1-piperazinecarboxylate]
20	N=C(N)Nc1ccc(CNC(=O)N2CCN(C(=O)O[C@H]3CCC[C@@H](OC(=O)N4CCN(C(=O)NCCCCCCN)CC4)CCC3)CC2)cc1 [Compound 54, cis-5-[4-(6-aminohexylcarbamoyl)piperazin-1-ylformyloxy]cyclooctyl 4-(4-guanidinobenzylcarbamoyl)-1-piperazinecarboxylate]
